Test results reported in publication PMC9854539, “QSAR Studies, Molecular Docking, Molecular Dynamics, Synthesis, and Biological Evaluation of Novel Quinolinone-Based Thiosemicarbazones against Mycobacterium tuberculosis” (Antibiotics, 2022).
≈ marks a conversion by molar mass, not a printed value. Where “and” joins values, the source holds several entries; their conditions need not be identical. Identical values can stand only once.

Legend:
[1] = tested on: M. tuberculosis H37RV strain; parameters: method as in earlier work; conditions: cited from earlier work; for MIC: observed activity of QSAR data set; for MIC exp (log (1/molarMIC)): pMIC from literature MIC in mol/L
M. tuberculosis H37Rv = assay: Spot culture growth inhibition assay (SPOTi), MIC; format: cell-based, Mycobacterium tuberculosis; conditions: Mycobacterium tuberculosis, H37RV; SPOTi, 2–3 weeks at 37 °C
M. bovis BCG = assay: microbe, parasite or virus in culture; format: cell-based; conditions: Mycobacterium tuberculosis variant bovis BCG, BCG, read-out: MIC M. bovis BCG

SMILES | MIC [1] | MIC exp (log (1/molarMIC)) [1] | MIC (M. tuberculosis H37Rv) [µM] | MIC (M. bovis BCG) [µM]
CC(=O)c1c(C)nc2ccc(Cl)cc2c1-c1ccccc1 [Compound 28] | 10.57 µM (≈ 3.13 µg/mL) | 4.98 |  | 
c1ccc(-c2c3c(nc4ccccc24)CCCCC3)cc1 [Compound 29] | 45.73 µM (≈ 12.5 µg/mL) | 4.34 |  | 
CC1CC(=O)c2c(nc3ccccc3c2-c2ccccc2)C1 (stereo not drawn) [Compound 30] | 21.75 µM (≈ 6.25 µg/mL) | 4.66 |  | 
CC1(C)CC(=O)c2c(nc3ccccc3c2-c2ccccc2)C1 [Compound 31] | 20.74 µM (≈ 6.25 µg/mL) | 4.68 |  | 
O=C1CC(c2ccccc2)Cc2nc3ccccc3c(-c3ccccc3)c21 (stereo not drawn) [Compound 32] | 35.77 µM (≈ 12.5 µg/mL) | 4.45 |  | 
c1ccc(-c2cc(-c3ccccc3)c3ccccc3n2)cc1 [Compound 33] | 11.11 µM (≈ 3.13 µg/mL) | 4.95 |  | 
c1ccc(-c2cc(Cc3ccco3)nc3ccccc23)cc1 [Compound 34] | 21.75 µM (≈ 6.21 µg/mL) | 4.66 |  | 
COc1ccc(NC(=O)c2c(C)nc3ccccc3c2-c2ccccc2)cc1 [Compound 35] | 8.48 µM (≈ 3.12 µg/mL) | 5.07 |  | 
Cc1nc2ccccc2c(-c2ccccc2)c1C(=O)Nc1ccc(F)cc1 [Compound 36] | 16.76 µM (≈ 5.97 µg/mL) | 4.78 |  | 
Cc1nc2ccccc2c(-c2ccccc2)c1C(=O)Nc1ccc(Cl)cc1 [Compound 37] | 17.54 µM (≈ 6.54 µg/mL) | 4.76 |  | 
Cc1nc2ccccc2c(-c2ccccc2)c1C(=O)Nc1ccc(Br)cc1 [Compound 38] | 30.92 µM (≈ 12.9 µg/mL) | 4.51 |  | 
Cc1nc2ccccc2c(-c2ccccc2)c1C(=O)Nc1ccccc1Cl [Compound 39] | 33.53 µM and 18.42 µM | 4.47 and 4.73 |  | 
Cc1nc2ccccc2c(-c2ccccc2)c1C(=O)NCc1ccccc1Cl [Compound 43] | 64.42 µM (≈ 24.9 µg/mL) | 4.19 |  | 
Cc1nc2ccccc2c(-c2ccccc2)c1C(=O)NCc1ccc(C(C)(C)C)cc1 [Compound 44] | 33.75 µM (≈ 13.8 µg/mL) | 4.47 |  | 
NNC(=O)c1ccncc1 [Isoniazid, reference compound] |  |  | 0.36 (≈ 0.0494 µg/mL) | 0.36 (≈ 0.0494 µg/mL)
